system: Aβ42 production; assay: Quantification of Aβ peptide (Aβx-42 ELISA) in neuronal culture from rat fetus brain; assay type: cell-based; conditions: primary neuronal culture from cerebral cortices of embryonic day 18 Wistar rat; compound added on day 4 of culture, incubation for 3 days; Aβx-42 in medium by ELISA, % of CTRL; read-out: Effect to Reduce Aβ42 Production IC50
Procedure: Quantification of Aβ Peptide in Neuronal Culture from Rat Fetus Brain (1)
Primary neuronal cultures were prepared from cerebral cortices from embryonic day 18 Wistar rat (Charles River Japan, Yokohama, Japan). The embryos were aseptically removed from a pregnant rat under ether anesthesia. The brain was isolated from the embryo, and immersed in ice-cold L-15 medium (for example, Invitrogen Corp. Cat #11415-064, Carlsbad, Calif., USA, or SIGMA L1518, St. Louis. MO, USA). The cerebral cortex was collected under a stereoscopic microscope from the brain. The cerebral cortex fragments collected were subjected to enzyme treatment in an enzyme solution containing 0.25% trypsin (for example, Invitrogen Corp., Cat #15050-065, Carlsbad, Calif., USA) and 0.01% DNase (for example, Sigma D5025, St. Louis. MO, USA) at 37 C for 30 minutes to allow for cell dispersion. The enzyme reaction was terminated by addition of same volume of heat-inactivated horse serum. After centrifugation at 1500 rpm for 5 minutes, the supernatant was removed and 5-10 ml of medium was added to the cell pellet. Neurobasal Medium™ (Invitrogen Corp., Carlsbad, Calif., USA) supplemented with 2% B-27 supplement (Invitrogen Corp., Carlsbad, Calif., USA), 25 μM 2-mercaptoethanol (2-ME, WAKO, 139-06861, Osaka, Japan), 0.5 mM L-glutamine (for example, Invitrogen Corp., Cat # 25030-081, Carlsbad, Calif., USA), and 1% antibiotics-antimycotics (Invitrogen Corp., Cat # 15240-062, Carlsbad, Calif., USA) was used as the culture medium (Neurobasal/B27/2-ME). At the compound evaluation, the medium of the same composition not to add 2-ME alone (Neurobasal/B27) was used. The cell pellet was triturated by mild pipetting. Remaining cell pellet was removed by filtering through a 40-μm nylon mesh (Cell Strainer, Cat # 35-2340, Becton Dickinson Labware, Franklin Lakes, N.J., USA) and a neuronal cell suspension was obtained. The neuronal cell suspension was diluted with the Neurobasal/B27/2-ME medium and then plated in a volume of 100 μl/well to obtain an initial cell density of 5×10^5 cells/cm^2 in a 96-well polystyrene plate pre-coated with poly-L or D-lysine (for example, Falcon MICROTEST Tissue culture plate 96 well flat bottom with low evaporation lid (Cat # 35-3075, Becton Dickinson Labware, Franklin Lakes, N.J., USA) coated with poly-L-lysine using the method shown below, or BIOCOAT™ cell environments Poly-D-lysine cell ware 96-well plate, Cat # 35-6461, Becton Dickinson Labware, Franklin Lakes, N.J., USA). Poly-L-lysine coating was carried out as follows. Poly-L-lysine (SIGMA P2636, St. Louis, Mo., USA) solution at 100 μg/ml was prepared aseptically with 0.15 M Borate buffer (pH 8.5). The solution was added to a 96-well polystyrene […] at 50-100 μl/well and incubated at room temperature for one hour or more, or at 4 C overnight or longer. This was rinsed 4 or more times with sterile water, and then dried or rinsed with, for example, sterile PBS or medium, and used for plating cells. Cells were cultured for one day in an incubator of 5% CO2-95% air at 37 C, the entire amount of the medium was exchanged with fresh Neurobasal/B27/2-ME, and the cells were then cultured for further 3 days.
Drugs were added on day 4 of culture as follows. The entire amount of the medium was removed from culture well, and Neurobasal/B27 medium was added at 180 μl/well. The test compound dimethyl sulfoxide (hereinafter abbreviated as DMSO) solution was diluted with Neurobasal/B27 so than it would be 10-fold of the desired final concentration. A diluent was added at 20 μl/well and mixed well. The final concentration of DMSO was 1% or less. Only DMSO was added to the control group.
After incubation for 3 days, the entire amount of the medium was collected as ELISA sample. This was used without any dilution for Aβx-42 measurement, and diluted to 5-fold with the diluent supplied with ELISA kit for Aβx-40 measurement, before subjecting to respective ELISA assays. […]

Row | Structure (SMILES) | IC50
1 | COc1cc(/C=C2\CCCN(Cc3cc(Cl)nc(Cl)c3)C2=O)ccc1-n1cnc(C)c1 [Example 403, (E)-1-(2,6-dichloropyridine-4-ylmethyl)-3-[3-methoxy-4-(4-methyl-1H-imidazol-1-yl)benzylidene]piperidin-2-one] | 90 nM
2 | COc1cc(/C=C/C(=O)N2CCC(c3cc4ccccc4[nH]3)CC2)ccc1-n1cnc(C)c1 [Example 338, (E)-1-{4-(1H-indol-2-yl)piperidin-1-yl}-3-[3-methoxy-4-(4-methyl-1H-imidazol-1-yl)phenyl]propenone] | 330 nM
3 | COc1cc(/C=C2\CCCN([C@H](C)c3ccc(F)cc3F)C2=O)ccc1-n1cnc(C)c1 (mixture of isomers) [Example 621, (E)-1-[(1R) and (1S)-1-(2,4-difluorophenyl)ethyl]-3-[3-methoxy-4-(4-methyl-1H-imidazol-1-yl)benzylidene]piperidin-2-one] | 100 nM
